This is an account of results in US20100076089A1, “ANTIMICROBIAL GEL FORMULATIONS” (NovaBay Pharmaceuticals, Inc., priority 2008, published 2010).

One data set deals with S. aureus. The data set can be described thus: Time-kill assay of antimicrobial gel formulations. In kind it is cell-based. The conditions noted are these: final inoculum 1.5×10^7 CFU/mL, room temperature.
The subject of a further data set is S. aureus 29213. Kind of data set: Radial diffusion assay of antimicrobial gel formulations. The conditions noted are these: 100 μl of formulation. The class given is cell-based. The procedure: Vials containing 0.6% NVC-422 (Drug Control), liquid, pH=5.0; 3% Polyox® WSR 205 (Placebo) Liquid, R.T. pH=5.0; 0.6% NVC-422/3% Polyox® WSR 205, Liquid, R.T., pH=5.0; 0.75% AA-1 (Placebo), 0.6% NVC-422/0.75% AA-1 and 0.23% AA-1 (alternate placebo) were prepared. The first three test articles appeared as clear liquids, while the last three appeared as gels. The samples were tested in the radial diffusion assay against S. aureus 29213. 100 μl of each formulation were tested in duplicate on two plates each (n=4 total).

The subject of the next data set is S. aureus 6538 biofilm. Kind of data set: Calgary Biofilm Device (MBEC) assay, absorbance reading. In kind it is cell-based. The conditions noted are these: 24 hr biofilm, treatment 60 minutes, overnight regrowth in TSB; values greater than 0.1 indicate incomplete biofilm eradication. The procedure:
S. aureus 6538 biofilm was grown in MBEC plates for 24 hr at 35° C. for 24 hr in TSB prior to treatment using the method describe above. The MBEC lid containing pegs coated with biofilm was first rinsed in a plate containing […] of PBS in each well for 1 minute, prior to treatment with a plate containing formulations for 60 minutes total. The lid was neutralized in a plate containing 200 μl D/E Neutralization broth in each well for 1 minute before transferring the lid into a plate containing 150 μl TSB in each well. Plate was incubated overnight at 35° C. Absorbance was read at 650 nm the following day.

The nature of data set [1]: Amount of N,N-dichloro-2,2-dimethyltaurine an AA-1 formulation can hold. In kind it is physicochemical. The text has this:
The formulations may be made by mixing the N-halogenated or N,N-dihalogenated amine compound with the polymer using water. Water/oil emulsions, hydrating agents, wetting agents, surfactants, and the like may also be used. Concentrations of N-halogenated or N,N-dihalogenated amine compound may range from about 0.01% to about 5.0% (by weight). Concentrations of polymer may be from about 0.01% to about 10% (by weight) in water. For example, in certain implementations, the concentration of N-halogenated or N,N-dihalogenated compounds may range from about 0.1% to about 2.0% (by weight). Higher concentrations of polymer may be required to formulate higher concentrations of the N-halogenated or N,N-dihalogenated amine compound. For example, a 1% AA-1 formulation can hold up to about 2% N,N-dichloro-2,2-dimethyltaurine, whereas a 2% AA-1 formulation can hold up to about 3.5% of the same compound. These ratios may differ as different polymers and N-halogenated or N,N-dihalogenated amine compound are combined in a given formulation.

Structures are written as SMILES. Several values for one entry are separate records, joined by “and”; a condition that tells them apart may be missing. Equal values may be shown once.

For `CC(C)(CS(=O)(=O)O)N(Cl)Cl` [0.3% NVC-422 alone, N,N-dichloro-2,2-dimethyltaurine], the “time to complete kill” value in the data set on S. aureus came to 1 h.

For the molecule `CC(C)(CS(=O)(=O)O)N(Cl)Cl` [0.6% NVC-422, N,N-dichloro-2,2-dimethyltaurine], the “time to complete kill” value with S. aureus (listed as 0.6% NVC-422 alone) came out at 0.25 h. Moreover, in the data set on S. aureus 29213 (pH 5.0), the “Clearing zone diameters, Sample 1” value turned out to be 15 mm; the “Clearing zone diameters, Sample 2” value stood at 16 mm; the “Clearing zone diameters, Sample 3” value came to 16 mm; the “Clearing zone diameters, Sample 4” value was found to be 14 mm. Also, the “Clearing zone diameters, Average +/− SD” value in the data set on S. aureus 29213 (pH 5.0, n=4, pH 5) is 15.3 mm and 15.3 +/− 1.0 mm. In addition, the “Ave. Abs at 650 nm” value with S. aureus 6538 biofilm came out at 0.48.

Consider `CC(C)(CS(=O)(=O)O)N(Cl)Cl` [NVC-422, N,N-dichloro-2,2-dimethyltaurine], for which the “amount of compound the formulation can hold” value in data set [1] (1% AA-1 formulation) is given as “up to 2%”; in data set [1] (2% AA-1 formulation), “up to 3.5%”.
